Values quoted from earlier work in publication PMC9102399 (Molecules, 2022).

Columns and labels:
[1] = design: method as in earlier work; settings: SD rats
[2] = rats, oral; curcumin 500 mg/kg
[3] = beagle dogs

Compound: COc1cc(C=CC(=O)CC(=O)C=Cc2ccc(O)cc2)ccc1O [CUR II, 4-hydroxycinnamoyl-[4-hydroxy-3-methoxycinnamoyl] methane]
- t1/2 of oral CUR II [1]: about 5.5 h

Compound: COc1cc(/C=C/C(=O)CC(=O)/C=C/c2ccc(O)c(OC)c2)ccc1O [curcumin]
- time of maximal plasma concentration [2]: 30 min

Compound: COc1cc(C=CC(=O)CC(=O)C=Cc2ccc(O)c(OC)c2)ccc1O [CUR, 1,7-bis [4-hydroxy-3-methoxy-phenyl]-hepta-1,6-diene-3,5-dione]
- oral t1/2 of CUR [3]: about 0.85 h
